# Data published in patent publication US20200368312A1 (priority 2017, published 2020).
# Read-outs that look alike come from different tables or passages of the source.
# Experiments:
# [1] = test system: MRSA isolate ATCC BAA-1556; experiment: MIC, CLSI-guided broth susceptibility testing (Example 10); assay type: cell-based, Staphylococcus aureus
# Method: (§1) MIC Testing: Glycopeptide compounds were dissolved in 100% DMSO. In vitro activities were determined using CLSI-guided broth susceptibility testing to measure drug minimum inhibitory concentrations (MICs) of the compounds against the quality control strain ATCC 29213 (MSSA) and the MRSA isolate ATCC BAA-1556. Glycopeptides are defined as compounds of Formula (I), and their respective R^1, R^2, R^3 and R^4 groups. X is —O— for each compound in Table 2.
# [2] = test system: quality control strain ATCC 29213 (MSSA); experiment: as above; assay type: cell-based, Staphylococcus aureus
# Method: as §1
# Staphylococcus aureus = experiment: microbe, parasite or virus in culture; assay type: cell-based; details: for MIC: Staphylococcus aureus, read-out: MIC
# Enterococci = assay type: cell-based
# Streptococci = experiment: Broth microdilution MIC, Streptococci (Example 11, Table 7); assay type: cell-based
# S. epidermidis (CoNS) = experiment: Broth microdilution MIC, S. epidermidis (CoNS) (Table 7); assay type: cell-based
# S. lugdenensis (CoNS) = experiment: Broth microdilution MIC, S. lugdenensis (CoNS) (Table 7); assay type: cell-based; details: S. lugdenensis (CoNS) MMX 8724
# S. haemolyticus (CoNS) = experiment: Broth microdilution MIC, S. haemolyticus (CoNS) (Table 7); assay type: cell-based; details: S. haemolyticus (CoNS) MMX 529 ATCC 29970
# S. hominis (CoNS) = experiment: Broth microdilution MIC, S. hominis (CoNS) (Table 7); assay type: cell-based; details: S. hominis (CoNS) MMX 667 ATCC 27844
# C. perfringens = assay type: cell-based
# P. micros = experiment: Broth microdilution MIC, P. micros (Table 7); assay type: cell-based; details: P. micros MMX 3546
# P. anaerobius = experiment: Broth microdilution MIC, P. anaerobius (Table 7); assay type: cell-based; details: P. anaerobius MMX 1208 ATCC 27337
# P. acnes = experiment: Broth microdilution MIC, P. acnes (Table 7); assay type: cell-based
structure (smiles),measurement,setting,value
CNC(CC(C)C)C(=O)NC1C(=O)NC(CC(N)=O)C(=O)NC2C(=O)NC3C(=O)NC(C(=O)NC(C(=O)O)c4cc(O)cc(O)c4-c4cc3ccc4O)C(O)c3ccc(c(Cl)c3)Oc3cc2cc(c3OC2OC(CO)C(O)C(O)C2OC2CC(C)(NCc3ccc(-c4ccc(Cl)cc4)cc3)C(O)C(C)O2)Oc2ccc(cc2Cl)C1O (centres unmarked) [RV79],MIC Values MRSA 1556,[1],0.016 µg/mL
same,MIC Values MSSA 29213,[2],0.016 µg/mL
CN[C@H](CC(C)C)C(=O)N[C@H]1C(=O)N[C@@H](CC(N)=O)C(=O)N[C@H]2C(=O)N[C@H]3C(=O)N[C@H](C(=O)N[C@H](C(=O)O)c4cc(O)cc(O)c4-c4cc3ccc4O)[C@H](O)c3ccc(c(Cl)c3)Oc3cc2cc(c3O[C@@H]2O[C@H](CO)[C@@H](O)[C@H](O)[C@H]2O[C@H]2C[C@](C)(N)[C@H](O)[C@H](C)O2)Oc2ccc(cc2Cl)[C@H]1O [Vancomycin],RV40 activity as compared to Comparator,Staphylococcus aureus,86 ×
same,MIC,"Staphylococcus aureus; ATCC 33591 / MRSA, S. aureus MMX 5717 ATCC 33591, MRSA",1 µg/mL
same,MIC,"Staphylococcus aureus; ATCC BAA-1756 / MRSA, S. aureus MMX 2011 ATCC BAA-1756, MRSA",1 µg/mL
same,MIC,"Staphylococcus aureus; MRSA, S. aureus MMX 2010, MRSA",1 µg/mL
same,MIC,"Staphylococcus aureus; MRSA, S. aureus MMX 3982, MRSA",0.5 µg/mL
same,MIC,"Staphylococcus aureus; MRSA, S. aureus MMX 5985, MRSA",0.5 µg/mL
same,MIC,"Staphylococcus aureus; MRSA, S. aureus MMX 5999, MRSA",0.5 µg/mL
same,MIC,"Staphylococcus aureus; MRSA, S. aureus MMX 7899, MRSA",0.5 µg/mL
same,MIC,"Staphylococcus aureus; MRSA, S. aureus MMX 7900, MRSA",0.5 µg/mL
same,MIC,"Staphylococcus aureus; MRSA, S. aureus MMX 7901, MRSA",0.5 µg/mL
same,MIC,"Staphylococcus aureus; MRSA, S. aureus MMX 7902, MRSA",1 µg/mL
same,MIC,"Staphylococcus aureus; MRSA, S. aureus MMX 7903, MRSA",1 µg/mL
same,MIC,"Staphylococcus aureus; MSSA, S. aureus MMX 2490, MSSA",1 µg/mL
same,MIC,"Staphylococcus aureus; MSSA, S. aureus MMX 7907, MSSA",0.5 µg/mL
same,MIC,"Staphylococcus aureus; MSSA, S. aureus MMX 7908, MSSA",1 µg/mL
same,MIC,"Staphylococcus aureus; S. aureus MMX 4665, hVISA",4 µg/mL
same,MIC,"Staphylococcus aureus; S. aureus MMX 5989, Mu3, hVISA",1 µg/mL
same,MIC,"Staphylococcus aureus; VISA, S. aureus MMX 1723, Mu50, VISA",8 µg/mL
same,MIC,"Staphylococcus aureus; VISA, S. aureus MMX 2124, VISA, DaptoNS",4 µg/mL
same,MIC,"Staphylococcus aureus; VISA, S. aureus MMX 4658, VISA",4 µg/mL
same,MIC,"Staphylococcus aureus; VISA, S. aureus MMX 4660, VISA",4 µg/mL
same,MIC,"Enterococci; E. faecalis MMX 101 ATCC 29212, VSE",2 µg/mL
same,MIC,"Enterococci; E. faecalis MMX 1086, VanA VRE",> 64 µg/mL
same,MIC,Enterococci; E. faecalis MMX 4176,1 µg/mL
same,MIC,"Enterococci; E. faecium MMX 173, VanB VRE",> 64 µg/mL
same,MIC,"Enterococci; E. faecium MMX 851, VanA VRE",> 64 µg/mL
same,MIC,Enterococci; E. faecium MMX 4204,0.5 µg/mL
same,MIC,Streptococci; S. agalactiae MMX 427 ATCC 13813,0.25 µg/mL
same,MIC,Streptococci; S. agalactiae MMX 4088,0.25 µg/mL
same,MIC,"Streptococci; S. agalactiae MMX 4115, erm^R",0.25 µg/mL
same,MIC,Streptococci; S. anginosus (AGS) MMX 1201 ATCC 33397,0.5 µg/mL
same,MIC,Streptococci; S. constellatus (AGS) MMX 5677,0.25 µg/mL
same,MIC,Streptococci; S. dysgalactiae MMX 5121,0.25 µg/mL
same,MIC,Streptococci; S. dysgalactiae MMX 5123,0.5 µg/mL
same,MIC,Streptococci; S. dysgalactiae MMX 5124,0.25 µg/mL
same,MIC,Streptococci; S. mitis (MGS) MMX 1205 ATCC 49456,0.5 µg/mL
same,MIC,Streptococci; S. mitis (MGS) MMX 5798,0.25 µg/mL
same,MIC,Streptococci; S. oralis (MGS) MMX 5821,0.25 µg/mL
same,MIC,"Streptococci; S. pneumoniae MMX 432, PRSP",0.25 µg/mL
same,MIC,Streptococci; S. pneumoniae MMX 747,0.12 µg/mL
same,MIC,"Streptococci; S. pneumoniae MMX 1195 ATCC 49619, PISP",0.25 µg/mL
same,MIC,Streptococci; S. pyogenes MMX 404 ATCC 19615,0.25 µg/mL
same,MIC,"Streptococci; S. pyogenes MMX 946, ermR",0.25 µg/mL
same,MIC,Streptococci; S. pyogenes MMX 8778,0.25 µg/mL
same,MIC,"S. epidermidis (CoNS); S. epidermidis (CoNS) MMX 762, MRSE",2 µg/mL
same,MIC,"S. epidermidis (CoNS); S. epidermidis (CoNS) MMX 5145, MRSE",1 µg/mL
same,MIC,S. lugdenensis (CoNS),0.5 µg/mL
same,MIC,S. haemolyticus (CoNS),1 µg/mL
same,MIC,S. hominis (CoNS),0.5 µg/mL
same,MIC,C. perfringens,0.5 µg/mL
same,MIC,P. micros,0.5 µg/mL
same,MIC,P. anaerobius,0.25 µg/mL
same,MIC,P. acnes; P. acnes MMX 7942 ATCC 6919,0.25 µg/mL
same,MIC,P. acnes; P. acnes MMX 7946 ATCC 11827,0.25 µg/mL
